Test results taken from publication PMC9774128, “New Insights into the Mechanism of Antibacterial Action of Synthetic Peptide Mo-CBP3-PepI against Klebsiella pneumoniae” (Antibiotics, 2022).

What was measured:
[1] = tested on: K. pneumoniae (ATCC 10031); test: Antibacterial assay (MIC50); assay type: cell-based, Klebsiella pneumoniae; settings: against K. pneumoniae; compared with 31.25 µg mL^−1 of Oliveira et al.
Description: The human-pathogenic Gram-negative bacteria K. pneumoniae (ATCC 10031) strain was obtained from the Laboratory of Plant Toxins (LABTOX) of the Federal University of Ceará (UFC).

K. pneumoniae cells = test: Cell viability by MTT assay, planktonic cells; assay type: cell-based, Klebsiella pneumoniae; settings: peptide at MIC50 31.25 μg mL^−1 (Table 1; method says 1 mg mL^−1), MTT 3 h, 37 °C, absorbance 495 nm
Description: The cell viability assay was performed as described by Lima et al., with some adjustments. After the antibacterial assay was completed as described by Oliveira et al., the wells containing the treated cells with Mo-CBP3-PepI at 1 mg mL^−1 and control cells (50 µL) were incubated for 3 h in the dark at 37 °C with 50 µL of 3-(4,5-dimethylthiazol-2-yl)-2,5-diphenyltetrazolium bromide (2 mg mL^−1, MTT). After incubation, 100 µL of 100% DMSO was added to the wells, and the plate was slowly shaken to dissolve the formazan crystals. The absorbance was measured using a microplate reader (Epoch, BioTek) with a wavelength of 495 nm. The controls used for this assay were 5% of dimethyl sulfoxide (DMSO) prepared in 0.15 M NaCl (saline) solution and ciprofloxacin (1000 µg mL^−1) prepared in 5% ethanol in sterile saline solution.

[2] = tested on: K. pneumoniae (ATCC 10031); parameters: method as in PMID 30389515; settings: against K. pneumoniae; cited from earlier work
C. albicans cells = settings: cited from earlier work
Description: To answer the second question, it is necessary to understand an essential characteristic of antimicrobial peptides, self-association. Self-association is the ability of antimicrobial peptides to interact during the insertion into the membrane, allowing the formation of a huge pore. […] In this model, a peptide interacts with lipids in the membrane, as described above, to perform the insertion into the membrane. Then, the peptide molecules interact between them to form a huge por ...

[3] = tested on: K. pneumoniae cell membrane; test: Cell membrane integrity by propidium iodide uptake; assay type: cell-based, Klebsiella pneumoniae; settings: peptide 31.25 µg mL^−1, 24 h
Description: The assay was conducted as described by Oliveira et al., with some modifications. Preparation of cell suspension was completed as mentioned above. After, 50 µL of the diluted bacteria solution was incubated in the dark for 24 h, at 37 °C, with 50 µL of the peptide solution (31.25 µg mL^−1) previously prepared with 5% of dimethyl sulfoxide (DMSO) diluted in 0.15 M NaCl solution. The assay was conducted in 1.5 mL microtubes. The diluted bacteria solution was incubated only with the DMSO-NaCl solution for control. After incubation, the microtubes were centrifuged (5000× g, 5 min, 4 °C) and washed three times. Next, the washed cells were incubated with 1 µM propidium iodide for 30 min, in the dark, at 37 °C. After this, the cells were washed two times with saline solution to remove the excess fluorophore and observed with a fluorescence microscope (Olympus System BX 60; excitation wavelength, 488 nm; emission wavelength, […]).

CPAIQRCC [Mo-CBP3-PepI]
MIC50, experiments repeated here [1]: same results
Cell Viability (%) (K. pneumoniae cells): 47.54 ± 0.008%
MIC50 [2]: 31.25 µg/mL
pore size (C. albicans cells): 10 kDa
pore size indicated by movement of PI [3]: 692.50 Da
membrane pore formation (PI uptake) ([3]; 37 °C, 1 µM PI 30 min, fluorescence microscopy): induced the pore formation
